System: L. amazonensis
Test: Murine model of cutaneous leishmaniasis induced by L. amazonensis (efficacy)
Format: in vivo, BALB/c mice
Conditions: 30 μmol per kg per day × 28 days
Procedure: So, BALB/c mice infected with L. amazonensis were treated during 28 days with compound 10e (30 μmol per kg per day, i.p.) or with the standards miltefosine (30 μmol per kg per day, p.o.) and meglumine antimoniate (30 μmol per kg per day, i.p.).
This study (protocol number 2013.02) was approved by the Ethics Committee for Animal Experimentation of the Federal University of Alagoas (Brazil). All animals received humane care in compliance with the ‘Principles of laboratory animal care’ formulated by the National Society for Medical Research and the ‘Guide for the care and use of laboratory animals’ prepared by the National Academy of Sciences (Washington, DC). Then, 1 × 10^5 stationary promastigotes (5 days of culture in Schneider's medium) of L. amazonensis were inoculated subcutaneously into the right ear dermis of 6 week-old female BALB/c mice weighing ca. 20 g. and later treated with 10e (i.p.), miltefosine (p.o.) or meglumine antimoniate (i.p.) at 30 μmol kg^−1 × 28 days. The vehicle to solubilize 10e (LASSBio-1736) and standard drugs was Tween 20 (50 μL) and sterile water for injection, which was also administrated by i.p. route in two controls groups (non-infected control and infected control). The lesion size was measured using a paquimeter.[32] The parasite loads of infected ears and draining lymph nodes were determined using a quantitative limiting-dilution assay.[33] Toxicity was also evaluated due to alterations on spleen weight and by biochemistry dosages in plasma, performed according to the manufacturer's instructions (Doles, BRA). Data obtained from experiments were expressed as the mean ± S.E.M. and statistical differences between the treated and the vehicle groups of experiments were evaluated by ANOVA and Dunnett hoc tests.

O=C(N/N=C/c1ccc(C(F)(F)F)cc1)NNC(=O)c1ccc(Cl)cc1Cl [LASSBio-1736 (10e), 2,4-dichloro-phenylcarbamoyl-N-4-trifluoromethylphenylimine-urea]
Appearance of lesions on the first day after end of treatment (photographs): complete healing of the nodules and ulcers
Lesion sizes of infected ear (10e and meglumine antimoniate i.p., miltefosine p.o.): reduced the lesion sizes of infected ear like miltefosine
L. amazonensis titer in draining lymph node (limiting-dilution assay): not reduced the L. amazonensis titer in draining lymph node
Parasite load in infected ear (limiting-dilution assay): decreased parasite load in infected ear

Source: PMC9050848, “Carbamoyl-N-aryl-imine-urea: a new framework to obtain a putative leishmanicidal drug-candidate” (RSC Advances, 2020)
